# Columns and labels:
# [1] = Table 7, literature comparators, no reference given; cited from earlier work
# [2] = biological target: T1, human renin (Homo sapiens, UniProt P00797); conditions: for Ligand Efficiency: Table 3
# T1 sequence (P00797 67-406): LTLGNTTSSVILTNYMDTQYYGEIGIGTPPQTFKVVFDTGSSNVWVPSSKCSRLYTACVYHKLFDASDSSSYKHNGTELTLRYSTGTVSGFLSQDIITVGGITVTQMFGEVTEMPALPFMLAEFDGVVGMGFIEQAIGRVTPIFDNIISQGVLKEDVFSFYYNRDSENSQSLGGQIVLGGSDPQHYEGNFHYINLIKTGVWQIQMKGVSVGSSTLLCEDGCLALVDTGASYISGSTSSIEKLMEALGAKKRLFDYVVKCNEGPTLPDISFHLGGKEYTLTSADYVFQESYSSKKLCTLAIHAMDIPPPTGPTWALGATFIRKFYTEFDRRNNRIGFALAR
# [3] = Rat in vivo pharmacokinetic studies; design: species or system Sprague Dawley rats; conditions: for AUC: 10 mg/kg po dose, HCl salts, vehicle D5W, mean n = 3; for clearance / bioavailability: Sprague-Dawley, plasma; for clearance: iv, 1 mg/kg; for bioavailability: po, 10 mg/kg
# [4] = tested on: renin; conditions: ligand of the 2IKO X-ray structure; cited from earlier work
smiles,measurement,setting,value
CCc1nc(N)nc(N)c1-c1ccc2c(c1)N(CCCOC)C(=O)C(C)(c1cc(F)cc(F)c1)O2 (centres unmarked) [Compound 7c],%F (rat),[1],0.4%
"CCc1nc(N)cc(C)c1-c1cccc2c(C)c[nH]c12 [Compound 20, 6-Ethyl-4-methyl-5-(3-methyl-1H-indol-7-yl)pyridin-2-amine]",fold improvement in activity,[2]; going from 17 to 19 and then to 20,36 fold
"CCc1nc(N)nc(N)c1-c1ccc2c(c1)N(CCCOC)CCC2 [Compound 6c, reference compound]",Ligand Efficiency,[2],0.34
"CCc1nc(N)cc(C)c1-c1ccc2c(c1)N(CCCOC)C(=O)C(C)(C)O2 [Compound 34, 6-(6-Amino-2-ethyl-4-methylpyridin-3-yl)-4-(3-methoxypropyl)-2,2-dimethyl-2H-benzo[b][1,4]oxazin-3(4H)-one]",fold improvement in affinity vs 7b,"[2]; 6-ethyl-2-aminopyridine head group vs pyrimidine 7b, Table 5",2- to 3 fold
"COCCCN1CCCc2ccc(-c3c(C)cc(N)nc3C)cc21 [Compound 12, 5-(1-(3-Methoxypropyl)-1,2,3,4-tetrahydroquinolin-7-yl)-4,6-dimethylpyridin-2-amine]",Ligand Efficiency,[2],0.27
"CCc1nc(N)cc(C)c1-c1ccc(F)c2c(C)c(CCOC)[nH]c12 [Compound 27, 6-Ethyl-5-(4-fluoro-2-(2-methoxyethyl)-3-methyl-1H-indol-7-yl)-4-methylpyridin-2-amine]",AUC,[3],473 ngh/mL
same,clearance,[3],68 mL/min/kg
same,bioavailability,[3],20%
"CCc1nc(N)cc(C)c1-c1ccc2c(c1)N(CCCOC)CCC2 [Compound 13, 6-Ethyl-5-(1-(3-methoxypropyl)-1,2,3,4-tetrahydroquinolin-7-yl)-4-methylpyridin-2-amine]",Ligand Efficiency,[2],0.34
"CCc1nc(N)cc(OC)c1-c1ccc2c(c1)N(CCNC(C)=O)C(=O)C(C)(C)O2 [Compound 33, N-(2-(6-(6-Amino-2-ethyl-4-methoxypyridin-3-yl)-2,2-dimethyl-3-oxo-2H-benzo[b][1,4]oxazin-4(3H)-yl)ethyl)acetamide]",AUC,[3],1493 ngh/mL
same,clearance,[3],56 mL/min/kg
same,bioavailability,[3],39%
"CCc1nc(N)cc(C)c1-c1ccc2c(c1)N(CCNC(C)=O)C(=O)C(C)(C)O2 [Compound 32, N-(2-(6-(6-Amino-2-ethyl-4-methylpyridin-3-yl)-2,2-dimethyl-3-oxo-2H-benzo[b][1,4]oxazin-4(3H)-yl)ethyl)acetamide]",AUC,[3],1810 ngh/mL
same,clearance,[3],66 mL/min/kg
same,bioavailability,[3],58%
"CCc1nc(N)cc(OC)c1-c1ccc2c(c1)N(CCCOC)CCC2 [Compound 15, 6-Ethyl-4-methoxy-5-(1-(3-methoxypropyl)-1,2,3,4-tetrahydroquinolin-7-yl)pyridin-2-amine]",Ligand Efficiency,[2],0.33
CCc1nc(N)nc(N)c1-c1ccc(NCc2cc(F)cc(F)c2)cc1 [Compound 8],IC50,[4],4 µM
